Data taken from patent US8580784B2, “Method for treating a disease related to the glucocorticoid receptor” (Santen Pharmaceutical Co., Ltd., priority 2006, dated 2013).

target: T1, Recombinant human GR (Homo sapiens, UniProt P04150); assay: Evaluation test for binding activity to glucocorticoid receptor: receptor competitor assay by fluorescence polarization (Invitrogen GR competitor assay kit, cat No. P2816); details: 20 μM test compound solution, 10 μL per well plus 5 μL 4×GS1 and 5 μL 4×GR solution; room temperature 2 to 4 hours; a ratio of 100% or more is indicated by 100%
T1 construct: purchased Invitrogen P2816
T1 sequence (P04150 1-777): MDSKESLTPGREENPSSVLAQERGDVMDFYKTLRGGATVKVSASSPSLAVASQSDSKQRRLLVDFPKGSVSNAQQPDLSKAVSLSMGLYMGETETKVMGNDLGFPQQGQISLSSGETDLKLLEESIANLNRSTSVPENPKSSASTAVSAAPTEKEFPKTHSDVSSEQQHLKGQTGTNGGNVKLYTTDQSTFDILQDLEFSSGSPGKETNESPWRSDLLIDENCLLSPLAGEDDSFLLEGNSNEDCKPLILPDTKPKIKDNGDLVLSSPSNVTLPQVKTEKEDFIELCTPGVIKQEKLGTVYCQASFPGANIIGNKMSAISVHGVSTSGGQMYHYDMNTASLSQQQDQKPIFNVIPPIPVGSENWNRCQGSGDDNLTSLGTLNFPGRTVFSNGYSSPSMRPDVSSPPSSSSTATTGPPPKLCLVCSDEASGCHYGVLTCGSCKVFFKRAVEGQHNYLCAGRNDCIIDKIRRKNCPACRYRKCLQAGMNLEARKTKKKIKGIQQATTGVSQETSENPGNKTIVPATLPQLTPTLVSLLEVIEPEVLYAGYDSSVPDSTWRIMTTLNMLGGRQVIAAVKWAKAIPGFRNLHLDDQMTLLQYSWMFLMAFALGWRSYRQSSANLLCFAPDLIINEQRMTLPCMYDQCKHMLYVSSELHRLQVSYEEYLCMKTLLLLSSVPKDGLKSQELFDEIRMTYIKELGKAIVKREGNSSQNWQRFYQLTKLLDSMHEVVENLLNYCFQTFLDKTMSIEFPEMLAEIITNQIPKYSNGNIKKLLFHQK
Experimental: A detailed explanation of this matter will be described in the section of “Pharmacological Test” in Examples described below. In order to find the usefulness of the present compound as a pharmaceutical, a glucocorticoid receptor competitor assay was carried out by a fluorescence polarization method by using a glucocorticoid receptor competitor assay kit (manufactured by Invitrogen, cat No. P2816) to study the glucocorticoid receptor binding activity of the present compound.
1. Evaluation Test for Binding Activity to Glucocorticoid Receptor (hereinafter referred to as “GR”)
In order to evaluate a binding activity to GR, a receptor competitor assay was carried out by a fluorescence polarization method. In the assay, a GR competitor assay kit (manufactured by Invitrogen, cat No. P2816) was used, and a procedure was carried out according to the protocol attached to the kit. Hereinafter, the specific method will be described.
(Preparation of Reagents)
GR screening buffer: A buffer containing 10 mM potassium phosphate (pH 7.4), 20 mM sodium molybdate (Na2MoO4), 0.1 mM ethylene diamine tetraacetic acid (EDTA), 5 mM dithiothreitol (DTT), 0.1 mM stabilizing peptide and 2% dimethylsulfoxide was prepared.
4×GS1 solution: Fluormone™ GS1, which is a fluorescent glucocorticoid ligand, was diluted with GR screening buffer, whereby a 4 nM solution was prepared.
4×GR solution: Recombinant human GR was diluted with GR screening buffer, whereby a 16 nM solution was prepared.
(Preparation of Test Compound Solution)
After a test compound was dissolved in dimethylsulfoxide, the resulting solution was diluted with GR screening buffer, whereby a 20 μM test compound solution was prepared.
(Test Method and Measurement Method)
1) The test compound solution was added in an amount of 10 μL into each well of a 384-well plate, and then, 4×GS1 solution and 4×GR solution were added in an amount of 5 μL into each well, respectively.
2) The plate was incubated in a dark place at room temperature for 2 to 4 hours.
3) By using a multimode plate reader, Analyst™ HT (manufactured by LJL Biosystems), fluorescence polarization of each well was measured. As the blank, a well containing GR screening buffer in place of the test compound and 4×GS1 solution was used.
4) The same procedure as that in the above 1) to 3) was carried out except that GR screening buffer was used in place of the test compound solution, and the obtained result was taken as the negative control.
5) The same procedure as that in the above 1) to 3) was carried out except that 2 mM dexamethasone was used in place of the test compound solution, and the obtained result was taken as the positive control.
(Calculation Equation of GR Binding Ratio)
A GR binding ratio (%) was calculated from the following equation. GR binding ratio(%)=100×[1−(fluorescence polarization of test compound solution−fluorescence polarization of positive control solution)/(fluorescence polarization of negative control solution−fluorescence polarization of positive control solution)] (Test Results and Discussion)

| SMILES | inhibition at 20 µM (stock) | inhibition at 20 µM |
| --- | --- | --- |
| COc1cc(OC(=O)c2ccncc2)ccc1-c1ccc2c(c1CNc1cc(F)ccc1C)C(C)=CC(C)(C)N2 [Compound 1-34, 5-(5-Fluoro-2-methylphenylaminomethyl)-6-[2-methoxy-4-(pyridin-4-ylcarbonyloxy)phenyl]-2,2,4-trimethyl-1,2-dihydroquinoline] | 100% |  |
| COc1ccccc1NCc1c(-c2ccc(OS(=O)(=O)C3CC3)cc2OC)ccc2c1C(C)=CC(C)(C)N2 [Compound 2-7, 6-(4-Cyclopropylsulfonyloxy-2-methoxyphenyl)-5-(2-methoxyphenylaminomethyl)-2,2,4-trimethyl-1,2-dihydroquioline] | 100% |  |
| COc1ccccc1NCc1c(-c2ccc(OC(=O)c3occc3C)cc2OC)ccc2c1C(C)=CC(C)(C)N2 [Compound 1-29, 6-[2-Methoxy-4-(3-methylfuran-2-ylcarbonyloxy)phenyl]-5-(2-methoxyphenylaminomethyl)-2,2,4-trimethyl-1,2-dihydroquinoline] | 93% |  |
| COc1cc(OC(=O)c2ccoc2)ccc1-c1ccc2c(c1CNc1cc(F)ccc1C)C(C)=CC(C)(C)N2 [Compound 1-33, 5-(5-Fluoro-2-methylphenylaminomethyl)-6-[4-(furan-3-ylcarbonyloxy)-2-methoxyphenyl]-2,2,4-trimethyl-1,2-dihydroquinoline] | 100% |  |
| COc1ccccc1NCc1c(-c2ccc(OC(=O)C(C)C)cc2OC)ccc2c1C(C)=CC(C)(C)N2 [Compound 1-14, 6-(4-Isopropylcarbonyloxy-2-methoxyphenyl)-5-(2-methoxyphenylaminomethyl)-2,2,4-trimethyl-1,2-dihydroquinoline] | 99% |  |
| COc1ccccc1NCc1c(-c2ccc(OC(=O)c3ccco3)cc2OC)ccc2c1C(C)=CC(C)(C)N2 [Compound 1-1, 6-[4-(Furan-2-ylcarbonyloxy)-2-methoxyphenyl]-5-(2-methoxyphenylaminomethyl)-2,2,4-trimethyl-1,2-dihydroquioline] | 92% |  |
| COc1ccccc1NCc1c(-c2ccc(OC(=O)c3ccccc3C)cc2OC)ccc2c1C(C)=CC(C)(C)N2 [Compound 1-5, 6-[2-Methoxy-4-(2-methylbenzoyloxy)phenyl]-5-(2-methoxyphenylaminomethyl)-2,2,4-trimethyl-1,2-dihydroquinoline] | 93% |  |
| COc1ccccc1NCc1c(-c2ccc(OC(=O)c3ccccc3)cc2OC)ccc2c1C(C)=CC(C)(C)N2 [Compound 1-3, 6-(4-Benzoyloxy-2-methoxyphenyl)-5-(2-methoxyphenylaminomethyl)-2,2,4-trimethyl-1,2-dihydroquioline] | 95% |  |
| COc1ccccc1NCc1c(-c2ccc(OC(=O)c3cccnc3C)cc2OC)ccc2c1C(C)=CC(C)(C)N2 [Compound 1-2, 6-[2-Methoxy-4-(2-methylpyridin-3-ylcarbonyloxy)phenyl]-5-(2-methoxyphenylaminomethyl)-2,2,4-trimethyl-1,2-dihydroquioline] | 100% |  |
| COC(=O)c1cccc(C(=O)Oc2ccc(-c3ccc4c(c3CNc3ccccc3OC)C(C)=CC(C)(C)N4)c(OC)c2)c1 [Compound 1-18, 6-[2-Methoxy-4-(3-methoxycarbonylbenzoyloxy)phenyl]-5-(2-methoxyphenylaminomethyl)-2,2,4-trimethyl-1,2-dihydroquinoline] | 86% |  |
| COc1ccccc1NCc1c(-c2ccc(OC(=O)c3cccs3)cc2OC)ccc2c1C(C)=CC(C)(C)N2 [Compound 1-15, 5-(2-Methoxyphenylaminomethyl)-6-[2-methoxy-4-(thiophen-2-ylcarbonyloxy)phenyl]-2,2,4-trimethyl-1,2-dihydroquinoline] | 99% |  |
| COc1cc(OC(=O)c2ccccc2Cl)ccc1-c1ccc2c(c1CNc1cc(F)ccc1C)C(C)=CC(C)(C)N2 [Compound 1-9, 6-[4-(2-Chlorobenzoyloxy)-2-methoxyphenyl]-5-(5-fluoro-2-methylphenylaminomethyl)-2,2,4-trimethyl-1,2-dihydroquinoline] | 90% |  |
| COc1ccc(C(=O)Oc2ccc(-c3ccc4c(c3CNc3ccccc3OC)C(C)=CC(C)(C)N4)c(OC)c2)cc1 [Compound 1-22, 6-[2-Methoxy-4-(4-methoxybenzoyloxy)phenyl]-5-(2-methoxyphenylaminomethyl)-2,2,4-trimethyl-1,2-dihydroquinoline] | 81% |  |
| COc1cc(OC(=O)c2ccccc2SC)ccc1-c1ccc2c(c1CNc1cc(F)ccc1C)C(C)=CC(C)(C)N2 [Compound 1-39, 5-(5-Fluoro-2-methylphenylaminomethyl)-6-[4-(2-methylthiobenzoyloxy)-2-methoxyphenyl]-2,2,4-trimethyl-1,2-dihydroquinoline] | 100% |  |
| COc1ccccc1NCc1c(-c2ccc(OC(=O)c3cccnc3OC)cc2OC)ccc2c1C(C)=CC(C)(C)N2 [Compound 1-32, 6-[2-Methoxy-4-(2-methoxypyridin-3-ylcarbonyloxy)phenyl]-5-(2-methoxyphenylaminomethyl)-2,2,4-trimethyl-1,2-dihydroquinoline] | 90% |  |
| COc1cc(OC(=O)c2ccccc2F)ccc1-c1ccc2c(c1CNc1cc(F)ccc1C)C(C)=CC(C)(C)N2 [Compound 1-35, 6-[4-(2-Fluorobenzoyloxy)-2-methoxyphenyl]-5-(5-fluoro-2-methylphenylaminomethyl)-2,2,4-trimethyl-1,2-dihydroquinoline] | 100% |  |
| COc1cc(OC(=O)c2cccnc2C)ccc1-c1ccc2c(c1CNc1cc(F)ccc1C)C(C)=CC(C)(C)N2 [Compound 1-38, 5-(5-Fluoro-2-methylphenylaminomethyl)-6-[2-methoxy-4-(2-methylpyridin-3-ylcarbonyloxy)phenyl]-2,2,4-trimethyl-1,2-dihydroquinoline] | 100% |  |
| COc1ccccc1NCc1c(-c2ccc(OC(=O)c3cccnc3)cc2OC)ccc2c1C(C)=CC(C)(C)N2 [Compound 1-8, 5-(2-Methoxyphenylaminomethyl)-6-[2-methoxy-4-(pyridin-3-ylcarbonyloxy)phenyl]-2,2,4-trimethyl-1,2-dihydroquinoline] |  | 98% |
| COc1cc(OC(=O)c2occc2C)ccc1-c1ccc2c(c1CNc1cc(F)ccc1C)C(C)=CC(C)(C)N2 [Compound 1-42, 5-(5-Fluoro-2-methylphenylaminomethyl)-6-[2-methoxy-4-(3-methylfuran-2-ylcarbonyloxy)phenyl]-2,2,4-trimethyl-1,2-dihydroquinoline] | 100% |  |
| COc1ccccc1NCc1c(-c2ccc(OC(=O)c3ccncc3)cc2OC)ccc2c1C(C)=CC(C)(C)N2 [Compound 1-13, 5-(2-Methoxyphenylaminomethyl)-6-[2-methoxy-4-(pyridin-4-ylcarbonyloxy)phenyl]-2,2,4-trimethyl-1,2-dihydroquinoline] | 100% |  |
| COc1ccccc1NCc1c(-c2ccc(OC(=O)c3cscn3)cc2OC)ccc2c1C(C)=CC(C)(C)N2 [Compound 1-30, 5-(2-Methoxyphenylaminomethyl)-6-[2-methoxy-4-(thiazol-4-ylcarbonyloxy)phenyl]-2,2,4-trimethyl-1,2-dihydroquinoline] | 94% |  |
